Measurements reported in patent US20190292167A1, “HETEROAROMATIC COMPOUNDS USEFUL FOR THE TREATMENT OF PROLIFERATIVE DISEASES” (Syros Pharmaceuticals, Inc., priority 2013, published 2019).
pIC50: −log10 of the molar value. Where two headings read alike, the source gives them in different places.

What was measured:
CDK7 = target: T1, CDK7 (Homo sapiens, UniProt P50613); assay: Adapta kinase assay (Life Technologies) against CDK7, co-factors cyclin H and MNAT1; assay type: biochemical; conditions: read-out: CDK7 Inhibition
T1 construct: purchased Life Technologies (Adapta kinase assay service)
Procedure: Compounds of the invention were assayed for activity against CDK7 at Life Technologies™ (Grand Island, N.Y.) using their commercially available Adapta® kinase assay services. […] Details of the assay, including the substrate used for CDK7 kinase, are available on the Life Technologies web site (http://www.lifetechnologies.com/us/en/homellife-science/drug-discovery/target-and-lead-identification-and-validation/kinasebiology/kinase-activity-assays.html).
The co-factors used for the assay were cyclin H and MNAT1.

Jurkat = assay: Inhibition of cell proliferation, CellTiter-Glo, 72 hour; assay type: cell-based; conditions: Blood cancer cell line, 72 hour, read-out: Inhibition of Proliferation of Jurkat Cells
Procedure: The following cancer cell lines were tested with the media conditions indicated: […]

T1 sequence (P50613 whole entry): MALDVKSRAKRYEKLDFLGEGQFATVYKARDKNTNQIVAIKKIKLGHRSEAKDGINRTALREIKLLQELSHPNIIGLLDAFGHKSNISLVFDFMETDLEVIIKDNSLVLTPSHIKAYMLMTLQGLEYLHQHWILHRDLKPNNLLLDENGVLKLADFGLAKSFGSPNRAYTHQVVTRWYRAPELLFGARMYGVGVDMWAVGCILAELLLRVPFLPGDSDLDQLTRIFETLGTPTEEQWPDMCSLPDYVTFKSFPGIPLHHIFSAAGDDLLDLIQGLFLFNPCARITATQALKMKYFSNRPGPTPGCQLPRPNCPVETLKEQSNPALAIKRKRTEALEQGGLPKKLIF
T1 sequence (P51946 whole entry partner): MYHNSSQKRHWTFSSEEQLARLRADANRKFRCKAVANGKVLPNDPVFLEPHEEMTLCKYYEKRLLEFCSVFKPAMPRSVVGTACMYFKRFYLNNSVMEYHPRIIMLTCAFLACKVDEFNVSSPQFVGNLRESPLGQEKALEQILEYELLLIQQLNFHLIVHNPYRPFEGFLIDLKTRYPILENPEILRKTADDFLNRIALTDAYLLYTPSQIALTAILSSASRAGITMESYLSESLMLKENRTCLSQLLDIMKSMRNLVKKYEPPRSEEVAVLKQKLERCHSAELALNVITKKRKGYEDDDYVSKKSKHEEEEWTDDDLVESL
T1 sequence (P51948 whole entry partner): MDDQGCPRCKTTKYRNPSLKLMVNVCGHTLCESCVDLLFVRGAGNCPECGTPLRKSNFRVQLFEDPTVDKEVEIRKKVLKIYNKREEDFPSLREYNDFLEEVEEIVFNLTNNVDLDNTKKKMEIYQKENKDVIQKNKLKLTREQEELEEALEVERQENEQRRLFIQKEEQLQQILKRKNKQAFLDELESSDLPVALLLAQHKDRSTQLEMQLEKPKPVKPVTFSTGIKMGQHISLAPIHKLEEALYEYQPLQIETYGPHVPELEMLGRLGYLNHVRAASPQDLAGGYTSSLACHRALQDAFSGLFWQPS

Row | SMILES | pIC50 (CDK7) | pIC50 (Jurkat) | pIC50 (Jurkat; Homo sapiens, Jurkat, 72 h)
1 | CN(C)CC=CC(=O)Nc1ccc(C(=O)NC2CNCC(Nc3ncc(Cl)c(-c4c[nH]c5ccccc45)n3)C2)cc1 (racemic) [Compound 150, N-((+/−trans)-5-((5-chloro-4-(1H-indol-3-yl)pyrimidin-2-yl)amino)piperidin-3-yl)-4-((E)-4-(dimethylamino)but-2-enamido)benzamide] | > 7.00 | > 6.30 | 
2 | CN(C)C/C=C/C(=O)Nc1ccc(S(=O)(=O)N2CC[C@@H](Nc3ncc(Cl)c(-c4c[nH]c5ccccc45)n3)C2)cc1 [Compound 105, (E)-N-(4-((R)-3-(5-chloro-4-(1H-indol-3-yl)pyrimidin-2-ylamino)pyrrolidin-1-ylsulfonyl)phenyl)-4-(dimethylamino)but-2-enamide] | > 7.00 |  | 5.30 to 6.30
3 | N#Cc1cnc(N[C@@H]2CCN(C(=O)c3ccc(NC(=O)/C=C/CN4CCCC4)cc3)C2)nc1-c1c[nH]c2ccccc12 [Compound 108, (E)-N-(4-((R)-3-(5-cyano-4-(1H-indol-3-yl)pyrimidin-2-ylamino)pyrrolidine-1-carbonyl)phenyl)-4-(pyrrolidin-1-yl)but-2-enamide] | > 7.00 |  | > 6.30
4 | CNC/C=C/C(=O)Nc1ccc(CN2CCC(Nc3ncc(Cl)c(-c4c[nH]c5ccccc45)n3)CC2)cc1 [Compound 142, (E)-N-[4-[[4-[[5-chloro-4-(1H-indol-3-yl)pyrimidin-2-yl]amino]-1-piperidyl]methyl]phenyl]-4-(methylamino)but-2-enamide] | > 7.00 |  | > 6.30
5 | Cc1noc(C)c1-c1nc(N[C@H]2CC[C@@H](NC(=O)c3ccc(NC(=O)/C=C/CN(C)C)cc3)C2)ncc1Cl (racemic) [Compound 122, N-((1R,3S)-3-((5-chloro-4-(3,5-dimethylisoxazol-4-yl)pyrimidin-2-yl)amino)cyclopentyl)-4-((E)-4-(dimethylamino)but-2-enamido)benzamide and N-((1S,3R)-3-((5-chloro-4-(3,5-dimethylisoxazol-4-yl)pyrimidin-2-yl)amino)cyclopentyl)-4-((E)-4-(dimethylamino)but-2-enamido)benzamide] | 6.00 to 7.00 |  | > 6.30
6 | Cc1[nH]c2ccccc2c1-c1nc(NC2CCN(C(=O)c3ccc(NC(=O)/C=C/CN(C)C)cc3)CC2)ncc1Cl [Compound 125, (E)-N-(4-(4-((5-chloro-4-(2-methyl-1H-indol-3-yl)pyrimidin-2-yl)amino)piperidine-1-carbonyl)phenyl)-4-(dimethylamino)but-2-enamide] | > 7.00 |  | > 6.30
7 | CN(C)C/C=C/C(=O)Nc1ccc(C(=O)N[C@@H]2CC[C@H](Nc3ncc(Cl)c(-c4cccnc4)n3)C2)cc1 (racemic) [Compound 123, N-((1R,3S)-3-((5-chloro-4-(pyridin-3-yl)pyrimidin-2-yl)amino)cyclopentyl)-4-((E)-4-(dimethylamino)but-2-enamido)benzamide and N-((1S,3R)-3-((5-chloro-4-(pyridin-3-yl)pyrimidin-2-yl)amino)cyclopentyl)-4-((E)-4-(dimethylamino)but-2-enamido)benzamide] | 6.00 to 7.00 |  | > 6.30
8 | Nc1ccc(C(=O)N2[C@@H]3CC[C@H]2C[C@@H](Nc2ncc(Cl)c(-c4c[nH]c5ccccc45)n2)C3)cc1 [Compound 302, (4-aminophenyl)((1R,3R,5S)-3-(5-chloro-4-(1H-indol-3-yl)pyrimidin-2-ylamino)-8-aza-bicyclo[3.2.1]octan-8-yl)methanone] | < 6.00 |  | 5.30 to 6.30
9 | Cc1cc(NC(=O)/C=C/CN(C)C)ccc1C(=O)N1CCC(Nc2ncc(Cl)c(-c3c[nH]c4ccccc34)n2)CC1 [Compound 114, (E)-N-(4-(4-(5-chloro-4-(1H-indol-3-yl)pyrimidin-2-ylamino)piperidine-1-carbonyl)-3-methylphenyl)-4-(dimethylamino)but-2-enamide] | > 7.00 |  | > 6.30
10 | Nc1ccc(S(=O)(=O)N2CC[C@@H](Nc3ncc(Cl)c(-c4c[nH]c5ccccc45)n3)C2)cc1 [Compound 32, N—((R)-1-(4-aminophenylsulfonyl)pyrrolidin-3-yl)-5-chloro-4-(1H-indol-3-yl)pyrimidin-2-amine] | > 7.00 |  | < 5.30
11 | C=CC(=O)Nc1ccc(C(=O)NC2CC3(C2)CC(Nc2ncc(Cl)c(-c4c[nH]c5ccccc45)n2)C3)cc1 (centres unmarked) [Compound 138, 4-acrylamido-N-(6-((5-chloro-4-(1H-indol-3-yl)pyrimidin-2-yl)amino)spiro[3.3]heptan-2-yl)benzamide] | 6.00 to 7.00 |  | 5.30 to 6.30
12 | Cc1cc(C(=O)N2CCC(Nc3ncc(Cl)c(-c4c[nH]c5ccccc45)n3)CC2)ccc1N [Compound 59, (4-amino-3-methylphenyl)(4-(5-chloro-4-(1H-indol-3-yl)pyrimidin-2-ylamino)piperidin-1-yl)methanone] | > 7.00 |  | > 6.30
13 | CN(C)C/C=C/C(=O)Nc1ccc(C(=O)N[C@H]2CC[C@@H](Nc3ncc(Cl)c(-c4c[nH]c5ccccc45)n3)C2)cc1 [Compound 130, N-((1S,3R)-3-((5-chloro-4-(1H-indol-3-yl)pyrimidin-2-yl)amino)cyclopentyl)-4-((E)-4-(dimethylamino)but-2-enamido)benzamide] |  |  | > 6.30
14 | Nc1ccc(C(=O)N2CC[C@H](Nc3ncc(Cl)c(-c4c[nH]c5ccccc45)n3)C2)cc1 [Compound 24, (4-aminophenyl)((S)-3-(5-chloro-4-(1H-indol-3-yl)pyrimidin-2-ylamino)pyrrolidin-1-yl)methanone] | 6.00 to 7.00 |  | < 5.30
15 | CN(C)C/C=C/C(=O)Nc1ccc(C(=O)N[C@H]2C[C@@H](Nc3ncc(Cl)c(-c4c[nH]c5ccccc45)n3)CN(C)C2)cc1 (racemic) [161/162, N-[(3S)-5-[[5-chloro-4-(1H-indol-3-yl)pyrimidin-2-yl]amino]-1-methyl-3-piperidyl]-4-[[(E)-4-(dimethylamino)but-2-enoyl]amino]benzamide] | > 7.00 |  | 
16 | Nc1ccc(C(=O)NC2CC3(C2)CC(Nc2ncc(Cl)c(-c4c[nH]c5ccccc45)n2)C3)cc1 (centres unmarked) [Compound 318, 4-amino-N-(6-((5-chloro-4-(1H-indol-3-yl)pyrimidin-2-yl)amino)spiro[3.3]heptan-2-yl)benzamide] |  |  | < 5.30
17 | CS(=O)(=O)NC/C=C/C(=O)Nc1ccc(CN2CCC(Nc3ncc(Cl)c(-c4c[nH]c5ccccc45)n3)CC2)cc1 [Compound 158, (E)-N-(4-((4-((5-chloro-4-(1H-indol-3-yl)pyrimidin-2-yl)amino)piperidin-1-yl)methyl)phenyl)-4-(methylsulfonamido)but-2-enamide] | 6.00 to 7.00 |  | 
18 | C=CC(=O)Nc1ccc(NC(=O)[C@@H]2C[C@@H](Nc3ncc(Cl)c(-c4c[nH]c5ccccc45)n3)CN(C)C2)cc1 (relative stereo) [Compound 159, (Trans)-N-(4-acrylamidophenyl)-5-((5-chloro-4-(1H-indol-3-yl)pyrimidin-2-yl)amino)-1-methylpiperidine-3-carboxamide] | 6.00 to 7.00 |  | 
19 | C=CC(=O)Nc1ccc(NC(=O)[C@H]2C[C@@H](Nc3ncc(Cl)c(-c4c[nH]c5ccccc45)n3)CN(C)C2)cc1 (relative stereo) [Compound 160, (Cis)-N-(4-acrylamidophenyl)-5-((5-chloro-4-(1H-indol-3-yl)pyrimidin-2-yl)amino)-1-methylpiperidine-3-carboxamide] | > 7.00 |  | 
